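Five concentrations, 48 hours, 96-well plates. TGI denotes the concentration required for complete inhibition of growth.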
Tests used:
Test in all cases: NCI tumour cell line growth inhibition, 48 h
786-0 renal = system: 786-0 renal
A498 renal = system: A498 renal
A549 NSCLC = system: A549 NSCLC
ACHN renal = system: ACHN renal
BT-549 breast = system: BT-549 breast
CAKI-1 renal = system: CAKI-1 renal
CCRF-CEM leukemia = system: CCRF-CEM leukemia
COLO 205 colon = system: COLO 205 colon
DU-145 prostate = system: DU-145 prostate
EKVX NSCLC = system: EKVX NSCLC
HCC-2998 colon = system: HCC-2998 colon
HCT-116 colon = system: HCT-116 colon
HCT-15 colon = system: HCT-15 colon
HOP-62 NSCLC = system: HOP-62 NSCLC
HOP-92 NSCLC = system: HOP-92 NSCLC
HS 578T breast = system: HS 578T breast
HT29 colon = system: HT29 colon
IGROV1 ovarian = system: IGROV1 ovarian
K-562 leukemia = system: K-562 leukemia
KM12 colon = system: KM12 colon
LOX IMVI melanoma = system: LOX IMVI melanoma
M14 melanoma = system: M14 melanoma
MALME-3M melanoma = system: MALME-3M melanoma
MCF7 breast = system: MCF7 breast
MDA-MB-231 breast = system: MDA-MB-231 breast
MDA-MB-435 = system: MDA-MB-435
MOLT-4 leukemia = system: MOLT-4 leukemia
NCI-H226 lung = system: NCI-H226 lung
NCI-H23 lung = system: NCI-H23 lung
NCI-H460 lung = system: NCI-H460 lung
NCI-H522 lung = system: NCI-H522 lung
NCI/ADR-RES ovarian = system: NCI/ADR-RES ovarian
OVCAR-3 ovarian = system: OVCAR-3 ovarian
OVCAR-4 ovarian = system: OVCAR-4 ovarian
OVCAR-5 ovarian = system: OVCAR-5 ovarian
OVCAR-8 ovarian = system: OVCAR-8 ovarian
PC-3 prostate = system: PC-3 prostate
RPMI-8226 leukemia = system: RPMI-8226 leukemia
RXF 393 renal = system: RXF 393 renal
SF-268 CNS = system: SF-268 CNS
SF-295 CNS = system: SF-295 CNS
SF-539 CNS = system: SF-539 CNS
SK-MEL-2 melanoma = system: SK-MEL-2 melanoma
SK-MEL-28 melanoma = system: SK-MEL-28 melanoma
SK-MEL-5 melanoma = system: SK-MEL-5 melanoma
SK-OV-3 ovarian = system: SK-OV-3 ovarian
SN12C renal = system: SN12C renal
SNB-19 CNS = system: SNB-19 CNS
SNB-75 CNS = system: SNB-75 CNS
SR leukemia = system: SR leukemia
SW-620 colon = system: SW-620 colon
T-47D breast = system: T-47D breast
TK-10 renal = system: TK-10 renal
U251 CNS = system: U251 CNS
UACC-257 melanoma = system: UACC-257 melanoma
UACC-62 melanoma = system: UACC-62 melanoma
UO-31 renal = system: UO-31 renal

Work on COc1ccc2c(-c3ccc(OCCN(C)C)cc3)c(Oc3ccccc3)c(=O)oc2c1 yielded a TGI (786-0 renal) of 8.68 µM, a TGI (A498 renal) of 26.8 µM and a TGI (A549 NSCLC) of 10.4 µM. For the same compound, the TGI (ACHN renal) was 22 µM, the TGI (BT-549 breast) was 24.4 µM and the TGI (CAKI-1 renal) was 25.1 µM. It also gave a TGI (CCRF-CEM leukemia) of 10.1 µM, a TGI (COLO 205 colon) of 9.59 µM and a TGI (DU-145 prostate) of 27.6 µM. For the same compound, the TGI (EKVX NSCLC) was 23.5 µM, the TGI (HCC-2998 colon) was 10.3 µM and the TGI (HCT-116 colon) was 8.79 µM. The TGI (HCT-15 colon) was 14.6 µM, the TGI (HOP-62 NSCLC) was 27.3 µM and the TGI (HOP-92 NSCLC) was 25.8 µM. The TGI (HS 578T breast) was 21.5 µM, the TGI (HT29 colon) was 22.4 µM and the TGI (IGROV1 ovarian) was 19.1 µM. For the same compound, the TGI (K-562 leukemia) was 12.4 µM, the TGI (KM12 colon) was > 39.4 µM and the TGI (LOX IMVI melanoma) was 26.6 µM. The TGI (M14 melanoma) was 3.08 µM, the TGI (MALME-3M melanoma) was 11.6 µM and the TGI (MCF7 breast) was 15.3 µM. It also gave a TGI (MDA-MB-231 breast) of 10.2 µM, a TGI (MDA-MB-435) of 7.12 µM and a TGI (MOLT-4 leukemia) of 11.8 µM. It also gave a TGI (NCI-H226 lung) of 40 µM, a TGI (NCI-H23 lung) of 28.8 µM and a TGI (NCI-H460 lung) of 22.2 µM. The TGI (NCI-H522 lung) was 11.3 µM, the TGI (NCI/ADR-RES ovarian) was 20.4 µM and the TGI (OVCAR-3 ovarian) was 21.2 µM. It also gave a TGI (OVCAR-4 ovarian) of 40.7 µM, a TGI (OVCAR-5 ovarian) of 28.2 µM and a TGI (OVCAR-8 ovarian) of 26.2 µM. For the same compound, the TGI (PC-3 prostate) was 18.9 µM, the TGI (RPMI-8226 leukemia) was 15.5 µM and the TGI (RXF 393 renal) was 20.5 µM. For the same compound, the TGI (SF-268 CNS) was 18.9 µM, the TGI (SF-295 CNS) was 8.91 µM and the TGI (SF-539 CNS) was 16.7 µM. The TGI (SK-MEL-2 melanoma) was 13.9 µM, the TGI (SK-MEL-28 melanoma) was 5.53 µM and the TGI (SK-MEL-5 melanoma) was 5.89 µM. The TGI (SK-OV-3 ovarian) was 18.1 µM, the TGI (SN12C renal) was 18.7 µM and the TGI (SNB-19 CNS) was 17.2 µM. It also gave a TGI (SNB-75 CNS) of 21.6 µM, a TGI (SR leukemia) of 5.17 µM and a TGI (SW-620 colon) of 16.7 µM. For the same compound, the TGI (T-47D breast) was > 59.9 µM, the TGI (TK-10 renal) was 23 µM and the TGI (U251 CNS) was 8.9 µM. It also gave a TGI (UACC-257 melanoma) of 4.52 µM, a TGI (UACC-62 melanoma) of 9.82 µM and a TGI (UO-31 renal) of 13.9 µM.
